Experimental data from ChEMBL document CHEMBL1201862, “PubChem BioAssay data set” (2004).
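Tested at 5 concentrations; 48 h exposure; 96-well plates; endpoints linearly interpolated, else capped at highest concentration. The concentration for 50% growth inhibition is given as GI50.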 Activity calls are given as the source filed them. Rule as the data show it: active = GI50 up to about 1.1 µM and inactive = higher.

Columns and labels:
Assay in all cases: growth of human tumour cells (NCI), 48 h
[1] = test system: SNB-19
[2] = test system: ACHN
[3] = test system: T47D
[4] = test system: Hs-578T
[5] = test system: MDA-MB-231
[6] = test system: MCF7
[7] = test system: TK-10
[8] = test system: RXF 393
[9] = test system: MOLT-4
[10] = test system: LOX IMVI
[11] = test system: HOP-92
[12] = test system: COLO 205
[13] = test system: U-251
[14] = test system: KM12
[15] = test system: SK-MEL-28
[16] = test system: SK-MEL-5
[17] = test system: DU-145
[18] = test system: SNB-75
[19] = test system: A498
[20] = test system: HCT-15

Row | SMILES | GI50 [1] | GI50 [2] | GI50 [3] | GI50 [4] | GI50 [5] | GI50 [6] | GI50 [7] | GI50 [8] | GI50 [9] | GI50 [10] | GI50 [11] | GI50 [12] | GI50 [13] | GI50 [14] | GI50 [15] | GI50 [16] | GI50 [17] | GI50 [18] | GI50 [19] | GI50 [20]
1 | O=C(O)/C=C/c1c2ccc(=O)c(O)c-2oc2c(O)c(O)ccc12 | > 100 µM (inactive) | 30.8 µM (inactive) | > 100 µM (inactive) | 58.6 µM (inactive) | 20.8 µM (inactive) | 17.2 µM (inactive) | > 100 µM (inactive) | > 100 µM (inactive) | 18.9 µM (inactive) | 23 µM (inactive) | > 100 µM (inactive) | > 100 µM (inactive) | 16.1 µM (inactive) | 25.3 µM (inactive) | > 100 µM (inactive) | 54 µM (inactive) | > 100 µM (inactive) | 48 µM (inactive) | > 100 µM (inactive) | 61.9 µM
2 | CCSC1=N/C(=C\c2ccc(N(C)C)cc2)C(Cl)=N1 | > 100 µM (inactive) | > 100 µM (inactive) | 37.7 µM (inactive) | > 100 µM (inactive) | > 100 µM (inactive) | > 100 µM (inactive) | > 100 µM (inactive) | 25.2 µM (inactive) | > 100 µM (inactive) |  | > 100 µM (inactive) | > 100 µM (inactive) | > 100 µM (inactive) | > 100 µM (inactive) | > 100 µM (inactive) | > 100 µM (inactive) | > 100 µM (inactive) | > 100 µM (inactive) | > 100 µM (inactive) | > 100 µM
3 | O=C1CC2CC(CC3(CO3)C2)C1F (stereo not given) | > 100 µM (inactive) | > 100 µM (inactive) | > 100 µM (inactive) | > 100 µM (inactive) | > 100 µM (inactive) | > 100 µM (inactive) | > 100 µM (inactive) | > 100 µM (inactive) | > 100 µM (inactive) | > 100 µM (inactive) | 23 µM (inactive) | > 100 µM (inactive) | > 100 µM (inactive) | > 100 µM (inactive) | > 100 µM (inactive) | > 100 µM (inactive) | > 100 µM (inactive) | 48.2 µM (inactive) | > 100 µM (inactive) | > 100 µM
4 | CCc1c(-c2ccc(OC)cc2)c(=O)oc2cc(O)ccc12 | 56.1 µM (inactive) | 27.7 µM (inactive) | 30.6 µM (inactive) | 30.7 µM (inactive) | 57.5 µM (inactive) | 32.7 µM (inactive) |  | 54.5 µM (inactive) | 16 µM (inactive) | 30.1 µM (inactive) | 75.9 µM (inactive) | 28.2 µM (inactive) | 38.4 µM (inactive) | 37.2 µM (inactive) | 36.7 µM (inactive) | 14.8 µM (inactive) | 33.2 µM (inactive) | 73.3 µM (inactive) | 22.6 µM (inactive) | 25.9 µM
5 | O=C1c2ccccc2C(=O)c2c(NC(=O)c3ccc4c5c(ncnc35)-c3ccccc3C4=O)cccc21 | 33.9 µM (inactive) | > 100 µM (inactive) | > 100 µM (inactive) | 57.1 µM (inactive) | 32.4 µM (inactive) | > 100 µM (inactive) | 21.8 µM (inactive) | 22.6 µM (inactive) | > 100 µM (inactive) |  | 53.3 µM (inactive) | > 100 µM (inactive) | 31 µM (inactive) | > 100 µM (inactive) | > 100 µM (inactive) | > 100 µM (inactive) | > 100 µM (inactive) | 18.7 µM (inactive) | 40.6 µM (inactive) | > 100 µM
6 | CC(NC(=O)/C(=C/c1ccccc1)NC(=O)c1ccccc1)C(=O)O (stereo not given) | 77.1 µM (inactive) | 38.6 µM (inactive) | 29.6 µM (inactive) | 88.3 µM (inactive) | 36.5 µM (inactive) | 54.2 µM (inactive) |  | > 100 µM (inactive) | > 100 µM (inactive) | 25.2 µM (inactive) | 33.1 µM (inactive) | > 100 µM (inactive) | 34 µM (inactive) | 6.59 µM (inactive) | > 100 µM (inactive) | > 100 µM (inactive) | > 100 µM (inactive) | 24.1 µM (inactive) | > 100 µM (inactive) | 87.9 µM
7 | C/C(=N\NC(=S)N1CCCCC1)c1cccc(C)n1 | < 0.0143 µM (active) | < 0.012 µM (active) | < 0.01 µM (active) | 22.3 µM (inactive) | < 0.01 µM (active) | < 0.01 µM (active) |  | 0.238 µM (active) | < 0.01 µM (active) | < 0.01 µM (active) | 0.169 µM (active) | < 0.01 µM (active) | < 0.01 µM (active) | < 0.0221 µM (active) | 0.0968 µM (active) | < 0.0335 µM (active) | 0.153 µM (active) | 0.196 µM (active) | 0.0199 µM (active) | < 0.01 µM
